ChEMBL document CHEMBL1201861, “Genomics of Drug Sensitity in Cancer screening data, Wellcome Trust Sanger Institute”

How the values were obtained:
Assay in all cases: cells
Format in all cases: functional, cell-based
Settings in all cases: Homo sapiens
DSH1 = system: DSH1;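 further: growth inhibition of human DSH1 cells, measured with a cell viability readout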
Description: SANGER: Inhibition of human DSH1 cell growth in a cell viability assay.

NCI-H226 = system: NCI-H226;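 further: cell viability read-out used to gauge growth inhibition of the cells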
Description: SANGER: Inhibition of human NCI-H226 cell growth in a cell viability assay.

A101D = system: A101D;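 further: growth inhibition of the cell line, measured with a viability assay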
Description: SANGER: Inhibition of human A101D cell growth in a cell viability assay.

RH-1 = system: RH-1;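 further: growth inhibition of human RH-1 cells, read out with a cell viability assay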
Description: SANGER: Inhibition of human RH-1 cell growth in a cell viability assay.

CAS-1 = system: CAS-1;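 further: growth inhibition of CAS-1 cells, measured with a cell viability assay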
Description: SANGER: Inhibition of human CAS-1 cell growth in a cell viability assay.

NB10 = system: NB10;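 further: growth inhibition of NB10 cells, read out by a cell viability assay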
Description: SANGER: Inhibition of human NB10 cell growth in a cell viability assay.

KNS-42 = system: KNS-42;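 further: growth inhibition of KNS-42 cells, read out with a cell viability assay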
Description: SANGER: Inhibition of human KNS-42 cell growth in a cell viability assay.

COLO-668 = system: COLO-668
Description: SANGER: Inhibition of human COLO-668 cell growth in a cell viability assay.

SJSA-1 = system: SJSA-1;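 further: growth inhibition of human SJSA-1 cells, read out through a cell viability measurement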
Description: SANGER: Inhibition of human SJSA-1 cell growth in a cell viability assay.

TE-9 = system: TE-9;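 further: cell growth inhibition, measured with a cell viability readout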
Description: SANGER: Inhibition of human TE-9 cell growth in a cell viability assay.

SK-N-DZ = system: SK-N-DZ;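 further: growth inhibition of the cancer cell line, read out through a viability assay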
Description: SANGER: Inhibition of human SK-N-DZ cell growth in a cell viability assay.

RKO = system: RKO;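 further: growth inhibition of human RKO cells, read out with a cell viability assay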
Description: SANGER: Inhibition of human RKO cell growth in a cell viability assay.

GR-ST = system: GR-ST
Description: SANGER: Inhibition of human GR-ST cell growth in a cell viability assay.

SNU-C2B = system: SNU-C2B;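 further: cell viability readout used to measure compound-driven suppression of SNU-C2B cell proliferation, IC50 marking half-maximal growth inhibition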
Description: SANGER: Inhibition of human SNU-C2B cell growth in a cell viability assay.

NCI-H747 = system: NCI-H747;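 further: growth inhibition of human NCI-H747 cells, read out by a cell viability assay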
Description: SANGER: Inhibition of human NCI-H747 cell growth in a cell viability assay.

SF-126 = system: SF-126;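 further: growth inhibition of human SF126 cells, read out with a cell viability assay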
Description: SANGER: Inhibition of human SF126 cell growth in a cell viability assay.

EM-2 = system: EM-2;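 further: growth inhibition of EM-2 cells, read out with a cell viability assay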
Description: SANGER: Inhibition of human EM-2 cell growth in a cell viability assay.

LS-1034 = system: LS-1034
Description: SANGER: Inhibition of human LS-1034 cell growth in a cell viability assay.

HCC1187 = system: HCC1187;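 further: growth inhibition of HCC1187 cells, read out with a cell viability assay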
Description: SANGER: Inhibition of human HCC1187 cell growth in a cell viability assay.

ES1 = system: ES1;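 further: growth inhibition of ES1 cells, read out with a cell viability assay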
Description: SANGER: Inhibition of human ES1 cell growth in a cell viability assay.

SNB-75 = system: SNB-75;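 further: cell viability assay measuring growth inhibition of human SNB-75 cells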
Description: SANGER: Inhibition of human SNB75 cell growth in a cell viability assay.

U-266 = system: U-266
Description: SANGER: Inhibition of human U-266 cell growth in a cell viability assay.

KGN = system: KGN;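 further: growth inhibition of KGN cells, read out with a cell viability assay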
Description: SANGER: Inhibition of human KGN cell growth in a cell viability assay.

NCI-H1355 = system: NCI-H1355;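 further: growth inhibition of human NCI-H1355 cells, read out by a cell viability assay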
Description: SANGER: Inhibition of human NCI-H1355 cell growth in a cell viability assay.

MSTO-211H = system: MSTO-211H
Description: SANGER: Inhibition of human MSTO-211H cell growth in a cell viability assay.

MC116 = system: MC116;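 further: growth inhibition of MC116 cells, read out with a cell viability assay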
Description: SANGER: Inhibition of human MC116 cell growth in a cell viability assay.

BB30-HNC = system: BB30-HNC;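 further: growth inhibition of the cultured cell line, read out by a cell viability assay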
Description: SANGER: Inhibition of human BB30-HNC cell growth in a cell viability assay.

TGBC24TKB = system: TGBC24TKB;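 further: growth inhibition of human TGBC24TKB cells, read out with a cell viability assay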
Description: SANGER: Inhibition of human TGBC24TKB cell growth in a cell viability assay.

LB2241-RCC = system: LB2241-RCC;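 further: cell viability assay measuring how strongly the cultured human renal carcinoma line is prevented from growing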
Description: SANGER: Inhibition of human LB2241-RCC cell growth in a cell viability assay.

MFM-223 = system: MFM-223
Description: SANGER: Inhibition of human MFM-223 cell growth in a cell viability assay.

A388 = system: A388;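 further: growth inhibition of human A388 cells, read out with a cell viability assay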
Description: SANGER: Inhibition of human A388 cell growth in a cell viability assay.

HD-MY-Z = system: HD-MY-Z;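 further: growth inhibition of HD-MY-Z cells, read out with a cell viability assay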
Description: SANGER: Inhibition of human HD-MY-Z cell growth in a cell viability assay.

KNS-81-FD = system: KNS-81-FD;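 further: growth inhibition of KNS-81-FD cells, read out with a cell viability assay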
Description: SANGER: Inhibition of human KNS-81-FD cell growth in a cell viability assay.

GB-1 = system: GB-1;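 further: growth of GB-1 cells judged by a viability assay, IC50 marks the concentration inhibiting growth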
Description: SANGER: Inhibition of human GB-1 cell growth in a cell viability assay.

SF-539 = system: SF-539;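 further: Read-out is a cell viability assay, with IC50 reflecting inhibition of cell growth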
Description: SANGER: Inhibition of human SF539 cell growth in a cell viability assay.

AM-38 = system: AM-38;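 further: growth inhibition of AM-38 cells of human origin, read out by a cell viability assay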
Description: SANGER: Inhibition of human AM-38 cell growth in a cell viability assay.

Becker = system: Becker;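 further: growth inhibition of Becker cells, read out with a cell viability assay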
Description: SANGER: Inhibition of human Becker cell growth in a cell viability assay.

Mo = system: Mo
Description: SANGER: Inhibition of human Mo-T cell growth in a cell viability assay.

TGBC1TKB = system: TGBC1TKB;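 further: growth inhibition of TGBC1TKB cells, read out by a cell viability assay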
Description: SANGER: Inhibition of human TGBC1TKB cell growth in a cell viability assay.

TE-12 = system: TE-12;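 further: growth inhibition of TE-12 cells, read out by a cell viability assay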
Description: SANGER: Inhibition of human TE-12 cell growth in a cell viability assay.

TE-8 = system: TE-8;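 further: growth inhibition of TE-8 cells, measured with a cell viability readout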
Description: SANGER: Inhibition of human TE-8 cell growth in a cell viability assay.

CGTH-W-1 = system: CGTH-W-1;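 further: growth inhibition of human CGTH-W-1 cells measured by cell viability assay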
Description: SANGER: Inhibition of human CGTH-W-1 cell growth in a cell viability assay.

COLO-800 = system: COLO-800;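 further: growth inhibition of COLO-800 cells, read out with a cell viability assay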
Description: SANGER: Inhibition of human COLO-800 cell growth in a cell viability assay.

CTB-1 = system: CTB-1
Description: SANGER: Inhibition of human CTB-1 cell growth in a cell viability assay.

DMS-114 = system: DMS-114
HOP-62 = system: HOP-62;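 further: cell growth inhibition determined with a viability assay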
Description: SANGER: Inhibition of human HOP-62 cell growth in a cell viability assay.

KINGS-1 = system: KINGS-1;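 further: cell viability assay measuring suppression of KINGS-1 cell growth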
Description: SANGER: Inhibition of human KINGS-1 cell growth in a cell viability assay.

NEC8 = system: NEC8;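 further: growth inhibition of human NEC8 cells, read out by a cell viability assay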
Description: SANGER: Inhibition of human NEC8 cell growth in a cell viability assay.

HDLM-2 = system: HDLM-2;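 further: cell viability assay measuring suppression of HDLM-2 proliferation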
Description: SANGER: Inhibition of human HDLM-2 cell growth in a cell viability assay.

NCI-H1395 = system: NCI-H1395;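 further: cell viability assay read-out quantifying reduced proliferation of human NCI-H1395 cells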
Description: SANGER: Inhibition of human NCI-H1395 cell growth in a cell viability assay.

NCI-H82 = system: NCI-H82;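 further: growth inhibition of NCI-H82 cells, measured with a cell viability readout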
Description: SANGER: Inhibition of human NCI-H82 cell growth in a cell viability assay.

NB13 = system: NB13;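 further: cell viability readout measuring growth inhibition of human NB13 cells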
Description: SANGER: Inhibition of human NB13 cell growth in a cell viability assay.

COLO-320-HSR = system: COLO-320-HSR;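 further: growth inhibition of COLO-320-HSR cells, determined with a cell viability assay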
Description: SANGER: Inhibition of human COLO-320-HSR cell growth in a cell viability assay.

SK-LMS-1 = system: SK-LMS-1;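 further: growth inhibition of human SK-LMS-1 cells, read out with a cell viability assay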
Description: SANGER: Inhibition of human SK-LMS-1 cell growth in a cell viability assay.

L-428 = system: L-428
Description: SANGER: Inhibition of human L-428 cell growth in a cell viability assay.

LAMA-84 = system: LAMA-84;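 further: growth inhibition of LAMA-84 cells, read out with a cell viability assay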
Description: SANGER: Inhibition of human LAMA-84 cell growth in a cell viability assay.

NCI-H1650 = system: NCI-H1650;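 further: growth inhibition of human NCI-H1650 cells measured by a cell viability assay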
Description: SANGER: Inhibition of human NCI-H1650 cell growth in a cell viability assay.

LB1047-RCC = system: LB1047-RCC
Description: SANGER: Inhibition of human LB1047-RCC cell growth in a cell viability assay.

ALL-PO = system: ALL-PO
Description: SANGER: Inhibition of human ALL-PO cell growth in a cell viability assay.

HCC2218 = system: HCC2218
Description: SANGER: Inhibition of human HCC2218 cell growth in a cell viability assay.

HC-1 = system: HC-1
Description: SANGER: Inhibition of human HC-1 cell growth in a cell viability assay.

NCI-H720 = system: NCI-H720
Description: SANGER: Inhibition of human NCI-H720 cell growth in a cell viability assay.

EOL1 = system: EOL1
Description: SANGER: Inhibition of human EoL-1-cell cell growth in a cell viability assay.

KY821 = system: KY821
Description: SANGER: Inhibition of human KY821 cell growth in a cell viability assay.

CTV-1 = system: CTV-1
Description: SANGER: Inhibition of human CTV-1 cell growth in a cell viability assay.

NCI-H69 = system: NCI-H69
Description: SANGER: Inhibition of human NCI-H69 cell growth in a cell viability assay.

## O=c1cc(N2CCOCC2)oc2c(-c3cccc4c3sc3ccccc34)cccc12
DSH1
  IC50: > 2000 nM
NCI-H226
  IC50: > 2000 nM
A101D
  IC50: > 2000 nM
RH-1
  IC50: > 2000 nM
CAS-1
  IC50: > 2000 nM
NB10
  IC50: > 2000 nM
KNS-42
  IC50: > 2000 nM
COLO-668
  IC50: > 2000 nM
SJSA-1
  IC50: > 2000 nM
TE-9
  IC50: > 2000 nM
SK-N-DZ
  IC50: > 2000 nM
RKO
  IC50: > 2000 nM
GR-ST
  IC50: > 2000 nM
SNU-C2B
  IC50: > 2000 nM
NCI-H747
  IC50: > 2000 nM
SF-126
  IC50: > 2000 nM
EM-2
  IC50: > 2000 nM
LS-1034
  IC50: > 2000 nM
HCC1187
  IC50: > 2000 nM
ES1
  IC50: > 2000 nM
SNB-75
  IC50: > 2000 nM
U-266
  IC50: > 2000 nM
KGN
  IC50: > 2000 nM
NCI-H1355
  IC50: > 2000 nM
MSTO-211H
  IC50: > 2000 nM
MC116
  IC50: > 2000 nM
BB30-HNC
  IC50: > 2000 nM
TGBC24TKB
  IC50: > 2000 nM
LB2241-RCC
  IC50: > 2000 nM
MFM-223
  IC50: > 2000 nM
A388
  IC50: > 2000 nM
HD-MY-Z
  IC50: > 2000 nM
KNS-81-FD
  IC50: > 2000 nM
GB-1
  IC50: > 2000 nM
SF-539
  IC50: > 2000 nM
AM-38
  IC50: > 2000 nM
Becker
  IC50: > 2000 nM
Mo
  IC50: > 2000 nM
TGBC1TKB
  IC50: > 2000 nM
TE-12
  IC50: > 2000 nM
TE-8
  IC50: > 2000 nM
CGTH-W-1
  IC50: > 2000 nM
COLO-800
  IC50: > 2000 nM
CTB-1
  IC50: 1120 nM
DMS-114
  IC50: > 2000 nM
HOP-62
  IC50: > 2000 nM
KINGS-1
  IC50: > 2000 nM
NEC8
  IC50: 1550 nM
HDLM-2
  IC50: 323 nM
NCI-H1395
  IC50: > 2000 nM
NCI-H82
  IC50: > 2000 nM
NB13
  IC50: > 2000 nM
COLO-320-HSR
  IC50: > 2000 nM
SK-LMS-1
  IC50: > 2000 nM
L-428
  IC50: > 2000 nM
LAMA-84
  IC50: 988 nM
NCI-H1650
  IC50: > 2000 nM
LB1047-RCC
  IC50: > 2000 nM
ALL-PO
  IC50: > 2000 nM

## CC[C@@]1(O)C(=O)OCc2c1cc1n(c2=O)Cc2cc3ccccc3nc2-1 [CAMPTOTHECIN]
DSH1
  IC50: 15.8 nM
NCI-H226
  IC50: 22.5 nM
HCC2218
  IC50: 55.5 nM
RH-1
  IC50: 3.86 nM
HC-1
  IC50: 3.34 nM
NB10
  IC50: 0.614 nM
KNS-42
  IC50: 33.1 nM
COLO-668
  IC50: 22.3 nM
SJSA-1
  IC50: 18 nM
TE-9
  IC50: 23.7 nM
NCI-H720
  IC50: 44.7 nM
SK-N-DZ
  IC50: 21.7 nM
RKO
  IC50: 4.23 nM
GR-ST
  IC50: 0.701 nM
SNU-C2B
  IC50: 35.4 nM
SF-126
  IC50: 2.84 nM
EM-2
  IC50: 4.08 nM
LS-1034
  IC50: > 100 nM
ES1
  IC50: 0.0957 nM
SNB-75
  IC50: 17.3 nM
U-266
  IC50: 69.5 nM
KGN
  IC50: 10.6 nM
NCI-H1355
  IC50: 66.1 nM
MSTO-211H
  IC50: 8.24 nM
MC116
  IC50: 15.9 nM
BB30-HNC
  IC50: 21.5 nM
EOL1
  IC50: 0.271 nM
TGBC24TKB
  IC50: 53.7 nM
LB2241-RCC
  IC50: 2.08 nM
MFM-223
  IC50: > 100 nM
A388
  IC50: 10.1 nM
HD-MY-Z
  IC50: 1.63 nM
KNS-81-FD
  IC50: 19.4 nM
GB-1
  IC50: 4.68 nM
SF-539
  IC50: 9.01 nM
AM-38
  IC50: 4.41 nM
Becker
  IC50: 23.3 nM
TE-8
  IC50: 4.17 nM
CGTH-W-1
  IC50: 3.27 nM
COLO-800
  IC50: 0.428 nM
CTB-1
  IC50: 0.429 nM
DMS-114
  IC50: 81.1 nM
HOP-62
  IC50: > 100 nM
NEC8
  IC50: 3.11 nM
NCI-H82
  IC50: > 100 nM
NB13
  IC50: 28.8 nM
COLO-320-HSR
  IC50: 62.1 nM
LAMA-84
  IC50: 7.02 nM
LB1047-RCC
  IC50: 7.9 nM
ALL-PO
  IC50: 1.53 nM
KY821
  IC50: 8.12 nM
CTV-1
  IC50: 0.905 nM

## CCCS(=O)(=O)Nc1ccc(F)c(C(=O)c2c[nH]c3ncc(Cl)cc23)c1F [PLX-4720]
DSH1
  IC50: > 10000 nM
NCI-H226
  IC50: > 10000 nM
A101D
  IC50: 326 nM
HCC2218
  IC50: 878 nM
RH-1
  IC50: > 10000 nM
CAS-1
  IC50: > 10000 nM
NB10
  IC50: > 10000 nM
KNS-42
  IC50: > 10000 nM
COLO-668
  IC50: > 10000 nM
SJSA-1
  IC50: > 10000 nM
TE-9
  IC50: > 10000 nM
NCI-H720
  IC50: > 10000 nM
SK-N-DZ
  IC50: > 10000 nM
RKO
  IC50: > 10000 nM
GR-ST
  IC50: > 10000 nM
SNU-C2B
  IC50: > 10000 nM
NCI-H747
  IC50: > 10000 nM
SF-126
  IC50: > 10000 nM
EM-2
  IC50: > 10000 nM
LS-1034
  IC50: > 10000 nM
HCC1187
  IC50: > 10000 nM
ES1
  IC50: > 10000 nM
SNB-75
  IC50: > 10000 nM
U-266
  IC50: > 10000 nM
KGN
  IC50: > 10000 nM
NCI-H1355
  IC50: > 10000 nM
MSTO-211H
  IC50: > 10000 nM
MC116
  IC50: > 10000 nM
BB30-HNC
  IC50: > 10000 nM
NCI-H69
  IC50: > 10000 nM
EOL1
  IC50: 142 nM
TGBC24TKB
  IC50: > 10000 nM
LB2241-RCC
  IC50: 7370 nM
MFM-223
  IC50: > 10000 nM
A388
  IC50: > 10000 nM
HD-MY-Z
  IC50: > 10000 nM
KNS-81-FD
  IC50: > 10000 nM
GB-1
  IC50: > 10000 nM
SF-539
  IC50: > 10000 nM
AM-38
  IC50: > 10000 nM
Becker
  IC50: > 10000 nM
Mo
  IC50: > 10000 nM
TGBC1TKB
  IC50: > 10000 nM
TE-12
  IC50: > 10000 nM
TE-8
  IC50: > 10000 nM
CGTH-W-1
  IC50: > 10000 nM
COLO-800
  IC50: > 10000 nM
CTB-1
  IC50: 3400 nM
DMS-114
  IC50: > 10000 nM
HOP-62
  IC50: > 10000 nM
KINGS-1
  IC50: > 10000 nM
NEC8
  IC50: > 10000 nM
HDLM-2
  IC50: > 10000 nM
NCI-H1395
  IC50: > 10000 nM
NCI-H82
  IC50: > 10000 nM
NB13
  IC50: 4490 nM
COLO-320-HSR
  IC50: > 10000 nM
SK-LMS-1
  IC50: > 10000 nM
L-428
  IC50: > 10000 nM
LAMA-84
  IC50: > 10000 nM
NCI-H1650
  IC50: > 10000 nM
LB1047-RCC
  IC50: > 10000 nM
ALL-PO
  IC50: > 10000 nM
KY821
  IC50: 9050 nM
CTV-1
  IC50: > 10000 nM
